This note sets out measurements from PMC6134404 (Organic & biomolecular chemistry, 2018).

Data set [1] addresses T1, OxaC (Penicillium oxalicum, UniProt A0A1B2TT09). Kind of data set: X-ray crystal structure, […] Å. It is filed as binding.
Data set [2] deals with T1, OxaC. Kind of data set: X-ray crystal structure, […] Å. In kind it is binding. The source holds these as a separate data set.
Data set [3] has as its system C=CC(C)(C)[C@@]12C=C(O)C(=O)N3/C(=C/c4cnc[nH]4)C(=O)N[C@]31N(OC)c1ccccc12. Kind of data set: HPLC initial-velocity assay, Michaelis-Menten fit. In kind it is biochemical, Penicillium oxalicum. To be noted: 0.9 nM OxaC, 0.5 mM SAM, 50 mM Na/K phosphate pH 8.0, 23 °C.
The data set “crystal structure” concerns the molecule itself. Kind of data set: crystal structure.

As a reminder, the Km is the concentration of substrate that gives half-maximal velocity. As a reminder, the kcat is the maximal rate divided by the concentration of active sites. A word on the kcat/Km: it is the second-order rate constant that governs catalysis at low substrate concentration. By stoichiometry N is commonly meant a count of units in the complex or per binding partner.

Take `Nc1ncnc2c1ncn2[C@@H]1O[C@H](CSCC[C@H](N)C(=O)O)[C@@H](O)[C@H]1O` [S-adenosyl-L-homocysteine]: the “X-ray crystal structure, 2.50 Å” value on OxaC [1] (SAM site, product complex with oxaline) is “a product complex containing SAH and oxaline”.
On to `C=CC(C)(C)[C@@]12C=C(O)C(=O)N3/C(=C/c4cnc[nH]4)C(=O)N[C@]31N(OC)c1ccccc12` [compound 2, meleagrin], for which the “X-ray crystal structure, 2.95 Å” value on OxaC [2] (pseudo-Michaelis complex with sinefungin) is “a pseudo-Michaelis complex composed of the SAM analog sinefungin and the natural substrate meleagrin”.
In the case of `C=CC(C)(C)[C@]12C=C(OC)C(=O)N3/C(=C/c4cnc[nH]4)C(=O)N[C@@]31N(OC)c1ccccc12` [compound 3, oxaline], the “X-ray crystal structure, 2.50 Å” value on OxaC [1] (product complex with SAH, co-crystallised with meleagrin and SAM) was “a product complex containing SAH and oxaline”.
For the molecule `Nc1ncnc2c1ncn2[C@@H]1O[C@H](C[C@@H](N)CC[C@H](N)C(=O)O)[C@@H](O)[C@H]1O` [sinefungin], on OxaC [2] (SAM site, complex with meleagrin), the “X-ray crystal structure, 2.95 Å” value is “a pseudo-Michaelis complex composed of the SAM analog sinefungin and the natural substrate meleagrin”.
Turning to OxaC (Penicillium oxalicum), in data set [3], the Km worked out at 3.1 ± 0.9 µM, the kcat is 1.3 ± 0.2 s⁻¹ and the kcat/Km turned out to be 420000 M⁻¹ s⁻¹.

B1: OxaC (enzyme)
chain: MGSSHHHHHHHHGASENLYFQGASMTFSNADAQKIAVQKDVDEVVAAAQRFLHGSGNATSDEAKVDLQKKASNLVQTIRGPIPAALSSMEDIVKVASLRTLFEAGVFHAMPKGGASMTASEISAQTGLDKGILIRLMRAVTPLGPFHEVGEEEYAHTPFSEAYLTADIAGCFPVMSNFIFGPVLQICDFLRQNNWKDAITTRNNPFTLAHNCPGETMFEHLYKNSKNVAPVTKAEAADVDQIAMDLYPWEERLSDAKGSNATLVDIAGSHGNGTRAIMALAPKLNGCRFIVQDLEPVIGEHSQALRAEGIEPQVYDFLKQEQPVHGASIYYFRRVFHDWPDLPEGKKILDNTRAAMSREHSRILIHDIIVPEIGATMSHAWQDLSLMAIGGMERTEKDFARLLDIAGLALVKVWRKPGDMMGIIEARLK
As for B1, the “stoichiometry N” value in “crystal structure” was found to be 2.
